The values below come from paper PMC3253046 (Chinese Medicine, 2011).

Read-outs that look alike come from different tables or passages of the source.

The nature of series [1]: Stability of the selected isoflavones in transport buffer (PBS+). Format: physicochemical. To be noted: three hours of incubation. As for the experimental part: The transport buffer (PBS^+) used in the Caco-2 monolayer model was prepared as previously described. […]. For stability tests at 37°C, samples were taken at 0, 15, 40, 75, 120 and 180 minutes. At each time interval, 300 μl of isoflavone solution was taken and then acidified with 50 μl of 0.425% phosphoric acid. All experiments were conducted in triplicates. The amount of selected isoflavones remained in PBS^+ was determined with high-performance liquid chromatography (HPLC).

A short description of series [2]: Partition coefficients (octanol/aqueous). Format: physicochemical. To be noted: read-out: partition coefficient D (LogD, octanol/aqueous). How it is done:
The aqueous solution (10 ml) containing individual isoflavones was mixed with octanol (3 ml). The mixtures were equilibrated in tube rotator for 24 hours followed by sampling from the aqueous layers and determining concentrations of the isoflavones by HPLC. The test was performed in triplicates for each isoflavone. The partition coefficients (D) at both pH7.4 and pH 6.8 were obtained through the following equation:
LogD=log(isoflavoneoctanolphase∕isoflavoneaqueousphase)

A short description of series [3]: Bidirectional transport in the Caco-2 monolayer model. The class given is in vitro ADME, human. To be noted: human. How it is done: (§1) The Caco-2 cells were cultured and seeded in the Transwell® inserts (24 mm, 0.4 μm pore size, 4.71 cm^2, polycarbonate filter) according to our previous study. Cells used for the current study were from passage 35-40. The transport experiments were carried out at 23-25 days after seeding. Upon removal of culture medium, the Transwells® were pre-equilibrated with PBS^+ at 37°C for 15 minutes. […] All Caco-2 transport studies were performed at least in triplicates. Procedure was similar to the A→B transport studies except for the donor side and the receiver side was reversed. […] Samples were taken from the receiver (apical) side at the same time points and at the end of the experiment from the donor (basolateral) side as mentioned for the A→B studies. The studies were also performed at least in triplicates. Samples obtained in the Caco-2 transport studies were acidified with 0.425% phosphoric acid at a sample to acid ratio of 150:25 (v/v). […] Waters 2695 separation modules and Waters 996 photodiode array detector were used in the HPLC analyses of the Caco-2 samples. A reversed-phase column (100 × 4.6 mm 5μ Apex ODS Symm, Jones Chromatography, USA) equipped with a guard column (7.5 × 4.6 mm 5μ Spherisorb® ODS-2 C18, Waters, USA]) was used for the analyses of all three isoflavones. In order to shorten sample-running time, three separated HPLC methods were used for each isoflavone. The apparent permeability coefficient, Papp (cm/s), was calculated as follows. Papp=dC∕dT×V/(A×Co) where dC/dT is the initial slope of the plot of cumulative isoflavone concentrations versus time; V is the volume of receiver chamber (ml); A is the apparent surface area of the monolayer; Co is the initial concentration in donor site (μmol/ml). In addition to Papp, the percentage of recovery was calculated for each transport study to determine the extent of absence of isoflavone, which may be due to cell uptake or metabolism of the selected isoflavones after passing through the Caco-2 cells. It was calculated as follows. Recovery%=Final amount (in μmole) of isoflavone in donor and receptor side∕Initial amount (in μmole) of isoflavone in donor side
In general terms: Caco-2 monolayers are a common model of the intestinal barrier.

The subject of series [4] is MRP. The experiment in a line: Basolateral-to-apical transport in Caco-2 monolayer in the presence of MK571 (MRP inhibitor). The class given is in vitro ADME, human. To be noted: for lowering of B→A cumulative concentration versus without MK571: MK571 50 μM. As for the experimental part: Procedure was similar to the A→B transport studies except for the donor side and the receiver side was reversed. Loading solution (2.6 ml) was added into the basolateral side and 1.5 ml of the blank PBS^+ was added to the apical side. Samples were taken from the receiver (apical) side at the same time points and at the end of the experiment from the donor (basolateral) side as mentioned for the A→B studies. The studies were also performed at least in triplicates.
The study was performed only for isoflavones that had shown a favorable B→A transport in the bi-directional transport studies. […] To investigate the influence of MRP on the efflux transport of the selected isoflavones, we preloaded 1.5 ml of MK571 (50 μM) at apical side and 2.6 ml of MK571 (50 μM) at the basolateral side respectively. The B→A transport experiments of the selected isoflavones in the presence of MK571 (50 μM) in the both apical and basolateral chambers were then performed following the method described above. The studies were performed in triplicates.

Series [5] in a line: Hydrolysis on incubation with rat intestinal microvilli preparations. To be noted: 50 μM, 37°C, two hours, protein 0.43 mg/ml. The class given is in vitro ADME. As for the experimental part:
Male Sprague-Dawley rats, supplied by and bred at the Laboratory Animal Service Center at The Chinese University of Hong Kong, were housed in an air-conditioned room under a 12/12-hour light/dark cycle. The experiment was conducted after being approved by the Animal Ethics Committee of The Chinese University of Hong Kong.
Samples from the in vitro incubation studies were centrifuged at 16,000 × g (Eppendorf, Germany) for five minutes; 50 μl of the supernatant of the samples were obtained and injected into the HPLC for analysis. In order to monitor daidzin, puerarin and daidzein in a single run for the samples from the hydrolysis study, we modified the above HPLC method for simultaneous detection of the three compounds. The analytes were separated with an HPLC column (BDS reversed phase column, 25 cm × 4.6 mm id; 5 μm particle size, Thermo Hypersil, UK) and eluted by the linear gradient elution at a flow rate of 1 ml/min. The gradient started with 95% of water with 0.01% aqueous acetic acid (A) and 5% of ACN containing 0.01% acetic acid (B), changed linearly to 83% A and 17% B in 30 minutes; 70% A and 30% B in 30-40 minutes; 50% A and 50% B in 40-45 minutes; and then back to the initial composition in 15 minutes followed by ten minutes after equilibrium.

In series [6] the test system is Caco-2 monolayer. The experiment in a line: Bidirectional transport in the Caco-2 monolayer model. The class given is in vitro ADME, human. To be noted: for time at which detectable in receiver chambers: after being loaded, both directions. How it is done:
as §1

Where [7] appears, read: Caco-2, pH 6.8, Caco-2, pH6.8, mean ± SD (n = 3), read-out: Recovery Apical to basolateral.
The mark [8] stands for this setting: Caco-2, pH 6.8, Caco-2, pH6.8, mean ± SD (n = 3), read-out: Recovery Basolateral to apical.
[9] abbreviates: both directional transport studies.

Turning to `O=c1c(-c2ccc(O)cc2)coc2cc(O[C@@H]3O[C@H](CO)[C@@H](O)[C@H](O)[C@H]3O)ccc12` [Daidzin, daidzin], the “isoflavone remained in PBS+” value in series [1] (pH6.8, 37°C) is given as 108.66 ± 2.16%; in series [1] (pH7.4, 37°C) it was 108.11 ± 5.21%. For the same compound, the logD at 24 h in series [2] (pH 6.8, 24 hours equilibration) worked out at 0.34 ± 0.03; in series [2] (pH 7.4, pH7.4, 24 hours equilibration), 0.8 ± 0.03. Besides, the recovery was 92.9 ± 1.77% in series [3] (setting [7]) and 99.2 ± 2.55% in series [3] (setting [8]). Also, the Papp B→A in series [3] (pH 6.8, Caco-2, pH6.8, mean ± SD (n = 3), read-out: Papp Basolateral to apical) was determined as 0.53 ×10⁻⁶ cm/s. In series [4] (B→A, in the presence of MK571 50 μM), the “time from which detectable in the receiver chamber” value was determined as 90 min. Moreover, the “lowering of B→A cumulative concentration versus without MK571” value in series [4] (at 180 minutes) was 50%; in series [4] (at 180 minutes, listed as daidzin), “about 50%”. The “cumulative concentration in the receiver chamber (B→A)” value in series [4] (at 180 minutes, MK571 50 μM in both chambers) was found to be 0.41 ± 0.02 µM. For the same compound, the recovery at 180 min in series [4] (human, Caco-2, B→A transport in the absence and presence of MK571, read-out: percentages of recovery) was > 90%. Further, in series [5], the “hydrolysis by rat intestinal microvilli preparations” value was “completely hydrolyzed to daidzein”.

With `O=c1c(-c2ccc(O)cc2)coc2c([C@@H]3O[C@H](CO)[C@@H](O)[C@H](O)[C@H]3O)c(O)ccc12` [Puerarin, puerarin], the “isoflavone remained in PBS+” value in series [1] (pH6.8, 37°C) stood at 105.00 ± 2.72%; in series [1] (pH7.4, 37°C) it was 106.74 ± 4.20%. The recovery in series [3] (setting [7]) amounted to 88.9 ± 7.03%; in series [3] (setting [8]), 92.7 ± 8.09%. The “time at which detectable in receiver chambers” value in series [6] is recorded as “not being detectable until two hours”. Further, the “cumulative concentration in the receiver side” value in series [6] (at 180 minutes after apical loading) came out at 0.043 ± 0.006 µM; in series [6] (at 180 minutes after basal loading), 0.12 ± 0.02 µM. Moreover, the “fraction permeable through the Caco-2 monolayer” value in series [6] (setting [9]) is “around 0.3%”. The “hydrolysis by rat intestinal microvilli preparations” value in series [5] is reported as “majority of puerarin remained unchanged”.

Turning to `O=c1c(-c2ccc(O)cc2)coc2cc(O)ccc12` [Daidzein, daidzein], the “isoflavone remained in PBS+” value in series [1] (pH6.8, 37°C) worked out at 95.50 ± 0.84%; in series [1] (pH7.4, 37°C), 97.73 ± 3.43%. Also, the recovery in series [3] (Caco-2, pH 6.8, Recovery Apical to basolateral) turned out to be 83.1 ± 5.74%; in series [3] (Caco-2, pH 6.8, Recovery Basolateral to apical), 84 ± 14.1%. Besides, the “time at which detectable in receiver chambers” value in series [6] was determined as 15 min. The percentage of recoveries result in series [6] (setting [9]) is “about 83%”.
